From ChEMBL document CHEMBL1697731, “Cheminformatics analysis of assertions mined from literature that describe drug-induced liver injury in different species” (Chem Res Toxicol, 2010)

How the values were obtained:
Hepatotoxicity [1] = experiment: Literature-mined compound from Fourches et al multi-species drug-induced liver injury (DILI) dataset, effect in humans; details: human
Hepatotoxicity [2] = experiment: Literature-mined compound from Fourches et al multi-species drug-induced liver injury (DILI) dataset, effect in rodents; details: rodentia
Hepatotoxicity [3] = experiment: Literature-mined compound from Fourches et al multi-species drug-induced liver injury (DILI) dataset, effect in non-rodents

Compound | Hepatotoxicity (Hepatotoxicity [1]) | Hepatotoxicity (Hepatotoxicity [2]) | Hepatotoxicity (Hepatotoxicity [3]) | Hepatotoxicity (Hepatotoxicity [1]; Liver) | Hepatotoxicity (Hepatotoxicity [2]; Liver) | Hepatotoxicity (Hepatotoxicity [3]; Liver)
OC[C@H]1O[C@@H](n2cnc3c(O)ncnc32)[C@H](O)[C@@H]1O [INOSINE] | no drug-induced liver injury reported | drug-induced liver injury reported | no drug-induced liver injury reported | – | – | –
O[C@H]1[C@H](O)[C@@H](O)[C@H](O)[C@@H](O)[C@H]1O [INOSITOL] | drug-induced liver injury reported | no drug-induced liver injury reported | no drug-induced liver injury reported | – | – | –
Cc1cnc(NCCCN(C)C)c2c1[nH]c1ccc3cc(O)ccc3c12 [INTOPLICINE] | drug-induced liver injury reported | no drug-induced liver injury reported | no drug-induced liver injury reported | – | – | –
O=C(CCCCC(=O)Nc1c(I)cc(I)c(C(=O)O)c1I)Nc1c(I)cc(I)c(C(=O)O)c1I [IODIPAMIDE] | no drug-induced liver injury reported | drug-induced liver injury reported | drug-induced liver injury reported | – | – | –
CC(=O)N(CC(O)CO)c1c(I)c(C(=O)NCC(O)CO)c(I)c(C(=O)NCC(O)CO)c1I (stereo not drawn) [IOHEXOL] | no drug-induced liver injury reported | no drug-induced liver injury reported | drug-induced liver injury reported | – | – | –
CC(C)NNC(=O)COc1ccc(Cl)cc1 [IPROCLOZIDE] | drug-induced liver injury reported | no drug-induced liver injury reported | no drug-induced liver injury reported | – | – | –
CC(C)NNC(=O)c1ccncc1 [IPRONIAZID] | drug-induced liver injury reported | drug-induced liver injury reported | no drug-induced liver injury reported | – | – | –
CCCCC1=NC2(CCCC2)C(=O)N1Cc1ccc(-c2ccccc2-c2nnn[nH]2)cc1 [IRBESARTAN] | drug-induced liver injury reported | drug-induced liver injury reported | no drug-induced liver injury reported | – | – | –
CCc1c2c(nc3ccc(OC(=O)N4CCC(N5CCCCC5)CC4)cc13)-c1cc3c(c(=O)n1C2)COC(=O)[C@]3(O)CC [IRINOTECAN] | drug-induced liver injury reported | no drug-induced liver injury reported | no drug-induced liver injury reported | – | – | –
CC(C)Nc1ncccn1.O=P(O)(O)O [ISAXONINE PHOSPHATE] | drug-induced liver injury reported | no drug-induced liver injury reported | no drug-induced liver injury reported | – | – | –
O=c1c(-c2ccccc2)coc2ccccc12 [ISOFLAVONE] | no drug-induced liver injury reported | no drug-induced liver injury reported | drug-induced liver injury reported | – | – | –
FC(F)OC(Cl)C(F)(F)F (stereo not drawn) [ISOFLURANE] | drug-induced liver injury reported | drug-induced liver injury reported | drug-induced liver injury reported | – | – | –
NNC(=O)c1ccncc1 [ISONIAZID] | drug-induced liver injury reported | drug-induced liver injury reported | drug-induced liver injury reported | – | – | –
CC(C)O [ISOPROPYL ALCOHOL] | no drug-induced liver injury reported | drug-induced liver injury reported | no drug-induced liver injury reported | – | – | –
CC(C)NCC(O)c1ccc(O)c(O)c1 (stereo not drawn) [ISOPROTERENOL] | – | – | – | drug-induced liver injury reported | drug-induced liver injury reported | drug-induced liver injury reported
O=[N+]([O-])O[C@H]1CO[C@H]2[C@@H]1OC[C@H]2O[N+](=O)[O-] [ISOSORBIDE DINITRATE] | drug-induced liver injury reported | drug-induced liver injury reported | no drug-induced liver injury reported | – | – | –
